SMILES strings stand for the structures.

The test system of one test is MV-3 RFP cells. The test can be described thus: T-cell-TCB-MV3 killing assay. The test is classed as cell-based. Conditions: MV-3, 120 h, primary human T-cells + MCSP-TCB, 5 d; for Emax: 20 μM reference compound A1 = 100%, read-out: MSCP TCB killing MV-3 cells 5 d Emax; for EC50: read-out: MSCP TCB killing MV-3 cells 5 d EC50. The method, then:
All culturing steps are executed at 5% CO2, 37° C. and 95% humidity.
MV-3 RFP cells are cultured in MV-3 medium (DMEM+10% FBS, 1× PenStrep and 0.5 μg/mL Puromycin) for at least 3 weeks. Cultured MV-3 cells at 80% confluency are washed once with PBS−− and trypsinized until detached. […] Cells are seeded with 100 μL/well into a 96-well plate (TTP, #92696), and placed for 40 minutes without moving at room temperature in order to achieve evenly distributed attachment of cells. Plates are then incubated until further use.
On the next day, expanded primary human T-cells are thawed and resuspended in T-cell medium to 4*10^6 cells/mL. For 3 hours, they are cultured in a 6-well plate with 6 mL per well at maximum. After culturing the T-cells, they are filtered through a cell strainer (Miltenyi Biotech, #130-041-407), counted again, and cell concentration is adjusted to 2*10^6 cells/mL.
MCSP-TCB or PBS are pre-diluted in T-cell medium (concentration depending on T-cell donor), 4 times more concentrated than the end-concentration. 60 μL/well of pre-dilutions are then distributed into a round bottom plate (Costar, #3799) according to plate layout. Compounds are added in a 9 pt dose response with the Tecan D300e Digital Dispenser, as well 4 times more concentrated than the end-concentration. DMSO concentration of all wells is adjusted to 0.8%, resulting in 0.2% as final concentration.
60 μL per well of T-cell suspension are added to the prepared round bottom plate and resuspended with a manual multichannel. 100 μL/well of the resuspended T-cell suspension including treatments are then transferred cautiously to the over-night cultured MV-3 cells according to plate layout. 100 μL T-cell medium only is added to the outer MV-3 wells only. Final compound DR is starting at 20 μM with a dilution factor of 3.333. Final TCB concentration is between […] and was determined for each T-cell donor individually by running TCB titrations. For each donor, a TCB concentration was chosen which corresponds to 10-20% of MV3 baseline cell killing in the absence of compound treatment. Positive control is the reference compound A1 which is added in a DR, as well as additional wells with only 20 μM. 20 μM of reference compound A1 represent the positive stimulator control, TCB only (DMSO wells) the neutral control.
After transfer of T-cells with treatment pre-dilutions, MV-3 cells are imaged by time-lapse microscopy using IncucyteZOOM™ (Essen BioScience, MI, USA). Imaging is performed every 3 hours for a total of 120 hours (10× objective, phase and red image channels, acquisition time 400 ms, Green/Red 4614 optical module). RFP object count per well is analysed in the IncucyteZOOM™ Software (Version 2019B Rev2) with a mask that was previously created and optimized for MV-3 cells. Raw data is exported as object count/well and values are normalized as % TCL compared to wells with MV-3 only, representing 100% growth and therefore 0% TCL.
Calculated % TCL values are analysed in Genedata Screener using Roche Normalization PCT_POS_CTRL with MCSP-TCB only set as Neutral Control and 20 μM of the reference compound A1 set as Stimulator Control/100%.

For a further test, the target named is DGK α kinase (Homo sapiens (Human), UniProt P23743). The test can be described thus: In vitro DGK inhibition assay: ADP Glo run by Reaction Biology Corp., DGKalpha. Format: biochemical. As to conditions: 2 nM enzyme, 500 uM DLG, 10-dose duplicate. The method, then:
(§1) DGK α and ζ kinases use ATP to phosphorylate the substrate 1,2-dilauroyl-sn-glycerol (DLG). ATP is converted to ADP as a result of this enzymatic reaction.
(§2) After the kinase reaction, an ATP-depletion reagent is added to terminate the kinase reaction and deplete any remaining ATP, leaving only ADP. Second, a detection reagent is added to simultaneously convert ADP to ATP and allow the newly synthesized ATP to be converted to light using a coupled luciferase/luciferin reaction.
(§3) DGK α and ζ kinase ADP Glo assays were ran by Reaction Biology Corp., 1 Great Valley Parkway, Suite 2, Malvern, 19355, PA, USA. Information provided by the service provider are the following: DGK α and ζ kinases were used at 2 nM final concentration. Reactions were carried out at 50 µM ATP. 500 uM of the substrate DLG (Dilauroyl-sn-glycerol) was used.
On the technique in general: In ADP-Glo the light output rises with the ADP produced.

The target in test [1] is DGKzeta (hDGKzeta(1-928)-N-His) (Homo sapiens (Human), UniProt Q13574). Description: In vitro DGK inhibition assay, ADP-Glo (in house), DGKzeta. The test is classed as biochemical. Conditions: DLG liposomes, 50 μM ATP, 2 nM enzyme, 1 hour reaction.
In test [2] the target is DGKalpha (hDGKalpha(1-735)-N-His) (Homo sapiens (Human), UniProt P23743). Description: In vitro DGK inhibition assay, ADP-Glo (in house), DGKalpha. Conditions: DLG liposomes, 25 μM ATP, 4 nM enzyme, 1 hour reaction. The test is classed as biochemical.
For a further test, the target named is DGK ζ kinase (Homo sapiens (Human), UniProt Q13574). The test can be described thus: In vitro DGK inhibition assay: ADP Glo run by Reaction Biology Corp., DGKzeta. Format: biochemical. Conditions: 2 nM enzyme, 500 uM DLG, 10-dose duplicate. The protocol:
as §1, §2, §3

Chain of DGKalpha (hDGKalpha(1-735)-N-His) (P23743 whole entry): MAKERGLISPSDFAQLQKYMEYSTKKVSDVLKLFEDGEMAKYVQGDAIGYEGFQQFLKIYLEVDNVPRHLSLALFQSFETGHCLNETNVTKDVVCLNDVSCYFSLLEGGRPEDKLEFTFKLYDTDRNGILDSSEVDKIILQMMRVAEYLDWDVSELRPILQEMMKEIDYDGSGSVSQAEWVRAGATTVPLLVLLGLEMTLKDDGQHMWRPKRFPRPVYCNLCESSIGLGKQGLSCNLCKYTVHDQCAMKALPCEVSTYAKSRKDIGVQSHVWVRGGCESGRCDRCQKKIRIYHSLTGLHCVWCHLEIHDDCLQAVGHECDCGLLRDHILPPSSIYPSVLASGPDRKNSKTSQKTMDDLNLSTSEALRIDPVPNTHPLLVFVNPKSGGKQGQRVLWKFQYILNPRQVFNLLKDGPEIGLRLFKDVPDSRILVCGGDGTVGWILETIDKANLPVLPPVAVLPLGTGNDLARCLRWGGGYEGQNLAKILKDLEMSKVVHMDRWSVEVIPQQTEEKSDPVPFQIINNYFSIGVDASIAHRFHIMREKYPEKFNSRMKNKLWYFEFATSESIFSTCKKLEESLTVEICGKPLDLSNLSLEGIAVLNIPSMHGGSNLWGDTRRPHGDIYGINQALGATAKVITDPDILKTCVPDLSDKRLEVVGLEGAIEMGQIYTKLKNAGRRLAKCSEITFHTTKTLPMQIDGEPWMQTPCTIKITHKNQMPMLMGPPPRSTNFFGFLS
Chain of DGKzeta (hDGKzeta(1-928)-N-His) (Q13574 whole entry): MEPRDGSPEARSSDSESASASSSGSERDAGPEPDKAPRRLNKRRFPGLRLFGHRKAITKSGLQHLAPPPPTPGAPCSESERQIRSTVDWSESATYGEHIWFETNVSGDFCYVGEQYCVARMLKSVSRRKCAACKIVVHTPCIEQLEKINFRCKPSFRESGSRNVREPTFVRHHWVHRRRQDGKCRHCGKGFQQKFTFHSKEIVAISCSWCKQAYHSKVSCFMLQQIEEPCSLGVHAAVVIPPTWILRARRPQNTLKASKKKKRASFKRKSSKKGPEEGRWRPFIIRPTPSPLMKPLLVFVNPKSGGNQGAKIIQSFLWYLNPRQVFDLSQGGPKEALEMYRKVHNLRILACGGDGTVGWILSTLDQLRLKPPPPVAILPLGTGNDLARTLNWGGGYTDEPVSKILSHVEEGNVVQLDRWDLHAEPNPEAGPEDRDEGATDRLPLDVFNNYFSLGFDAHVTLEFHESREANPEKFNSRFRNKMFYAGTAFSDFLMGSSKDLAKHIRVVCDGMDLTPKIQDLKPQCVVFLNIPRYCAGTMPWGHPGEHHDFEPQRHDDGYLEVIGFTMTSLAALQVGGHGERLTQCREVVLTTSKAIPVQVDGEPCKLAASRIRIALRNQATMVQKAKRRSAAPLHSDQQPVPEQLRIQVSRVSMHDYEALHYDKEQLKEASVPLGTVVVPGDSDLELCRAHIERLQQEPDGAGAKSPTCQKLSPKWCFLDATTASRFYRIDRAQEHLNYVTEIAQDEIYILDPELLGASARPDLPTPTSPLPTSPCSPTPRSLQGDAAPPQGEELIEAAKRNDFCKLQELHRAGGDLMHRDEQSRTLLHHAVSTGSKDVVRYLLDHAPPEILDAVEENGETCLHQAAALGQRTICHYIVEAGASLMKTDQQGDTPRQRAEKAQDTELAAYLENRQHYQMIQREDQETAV
Chain of DGK α kinase (P23743 whole entry): as the sequence (P23743 whole entry) above
Chain of DGK ζ kinase (Q13574 whole entry): as the sequence (Q13574 whole entry) above

With `CC(C)(C)c1cncc(-c2cc3c(cc2F)S(=O)(=O)C[C@H](N)C(=O)N3Cc2ccc(Cl)cc2)c1` [Example 2, (3R)-3-amino-7-(5-tert-butyl-3-pyridyl)-5-[(4-chlorophenyl)methyl]-8-fluoro-1,1-dioxo-2,3-dihydro-1λ6,5-benzothiazepin-4-one], in the test on MV-3 RFP cells, the maximal response (Emax) worked out at 85% and the EC50 amounted to 0.078 µM.

As to `CC(C)(C)c1cnnc(-c2cc3c(cc2F)S(=O)(=O)C[C@H](N)C(=O)N3Cc2ccc(Cl)cc2)n1` [Example 11, (3R)-3-amino-7-(5-tert-butyl-1,2,4-triazin-3-yl)-5-[(4-chlorophenyl)methyl]-8-fluoro-1,1-dioxo-2,3-dihydro-1λ6,5-benzothiazepin-4-one], in the test with MV-3 RFP cells, the Emax came to 118% and the EC50 amounted to 0.134 µM.

Take `CC(C)(C#N)c1cncc(-c2cc3c(cc2F)S(=O)(=O)C[C@H](N)C(=O)N3Cc2ccc(-c3noc(C(F)(F)F)n3)cc2)c1` [Example 23, 2-[5-[(3R)-3-amino-8-fluoro-1,1,4-triketo-5-[4-[5-(trifluoromethyl)-1,2,4-oxadiazol-3-yl]benzyl]-2,3-dihydro-1λ6,5-benzothiazepin-7-yl]-3-pyridyl]-2-methyl-propionitrile]: the concentration for half-maximal inhibition (IC50) at DGK α kinase was 0.372 µM; in test [1], 9.88 µM; in test [2], 17.2 µM; against DGK ζ kinase, 0.309 µM.

`CC(C)(c1cncc(-c2cc3c(cc2F)S(=O)(=O)C[C@H](N)C(=O)N3Cc2ccc(-c3noc(C(F)(F)F)n3)cc2)c1)S(C)(=O)=O` [Example 25, (3R)-3-amino-8-fluoro-1,1-diketo-7-[5-(1-mesyl-1-methyl-ethyl)-3-pyridyl]-5-[4-[5-(trifluoromethyl)-1,2,4-oxadiazol-3-yl]benzyl]-2,3-dihydro-1λ6,5-benzothiazepin-4-one] gave a 50% inhibitory concentration (IC50) in test [1] of 43.1 µM. Moreover, in the test with MV-3 RFP cells, the Emax was 86% and the concentration giving a half-maximal response (EC50) worked out at 0.841 µM. Moreover, it took 22.2 µM to reach half-maximal inhibition in test [2] (IC50).

`COc1ccc(-c2ccc(CN3C(=O)[C@@H](N)CS(=O)(=O)c4cc(F)c(-c5cnc(C)c(C)c5)cc43)cc2)cc1` [Example 28, (3R)-3-amino-7-(5,6-dimethyl-3-pyridyl)-8-fluoro-5-[[4-(4-methoxyphenyl)phenyl]methyl]-1,1-dioxo-2,3-dihydro-1λ6,5-benzothiazepin-4-one]: the IC50 in test [1] was determined as 9.91 µM. Besides, in the test with MV-3 RFP cells, the Emax worked out at 89% and the concentration for a half-maximal effect (EC50) came out at 0.069 µM. Also, the half-inhibitory concentration (IC50) in test [2] stood at 3.06 µM.

What is called Emax is the size of the effect at its maximum, as opposed to the concentration needed. As usually defined, the EC50 is the midpoint of the concentration-response curve. The IC50 is the point on the concentration scale where inhibition reaches its midpoint. A high value points to lower potency.

The values above are taken from patent US20250236617A1, “BICYCLIC TETRAHYDROTHIAZEPINE DERIVATIVES” (Hoffmann-La Roche Inc., priority 2022, published 2025).
